# Measured values taken from US20060019892A1 (Florida Atlantic University, priority 2003, published 2006).
# Non-standard residues stand in square brackets, D forms with d. No end group written: not given here. Hyp = O=C(O)[C@@H]1C[C@@H](O)CN1
# Tested on: primary cultures of rat neonatal cortex (cultured cortical neurons)
# Assay type: cell-based
substance,measurement,value
A-O-A-N-S-V-W-S (A[Hyp]ANSVWS) [gla-2],effect on Ca^++ flux in the cells,reducing Ca^++ flux
same,modulation of Ca^++ flux in cultured neurons from rat cortex,modulate Ca^++ flux
